Laboratory results taken from the NIST ThermoML archive (doi:10.1021/je100211s).
Numbers after ± are expanded uncertainties.

Assay: mn = molality of the nth substance listed, in mol/kg
Conditions: 101 kPa, Liquid; for viscosity: Capillary tube (Ostwald / Ubbelohde) method; for mass density: Vibrating tube method

CCCCCCCCCCCCCCCC[N+](C)(C)C.[Br-] [N,N,N-trimethyl-1-hexadecanaminium bromide] + O
Conditions	mass density, 298.15 K [kg/m3]	mass density, 308.15 K [kg/m3]	mass density, 318.15 K [kg/m3]	viscosity, 298.15 K [mPa·s]	viscosity, 308.15 K [mPa·s]	viscosity, 318.15 K [mPa·s]
m1 = 0.001	997.2 ± 0.5	994.2 ± 0.5	990.4 ± 0.5	0.899 ± 0.009	0.744 ± 0.008	0.617 ± 0.008
m1 = 0.003	997.3 ± 0.5	994.3 ± 0.5	990.5 ± 0.5	0.91 ± 0.009	0.752 ± 0.008	0.622 ± 0.008
m1 = 0.005	997.4 ± 0.5	994.4 ± 0.5	990.6 ± 0.5	0.921 ± 0.009	0.76 ± 0.008	0.635 ± 0.008
